Experimental data as given in patent US7795236B2, “Purine nucleoside derivative modified in 8-position and medical use thereof” (Kissei Pharmaceutical Co., Ltd., priority 2005, dated 2010).

Target: T1, human CNT2 (Homo sapiens, UniProt O43868)
T1 construct: expressed in transfected cells; host or cells: COS-7 cells (RIKEN CELL BANK RCB0539), transient lipofection of a pCI-neo plasmid
T1 sequence (O43868 1-658 P22L/S45C/I160M): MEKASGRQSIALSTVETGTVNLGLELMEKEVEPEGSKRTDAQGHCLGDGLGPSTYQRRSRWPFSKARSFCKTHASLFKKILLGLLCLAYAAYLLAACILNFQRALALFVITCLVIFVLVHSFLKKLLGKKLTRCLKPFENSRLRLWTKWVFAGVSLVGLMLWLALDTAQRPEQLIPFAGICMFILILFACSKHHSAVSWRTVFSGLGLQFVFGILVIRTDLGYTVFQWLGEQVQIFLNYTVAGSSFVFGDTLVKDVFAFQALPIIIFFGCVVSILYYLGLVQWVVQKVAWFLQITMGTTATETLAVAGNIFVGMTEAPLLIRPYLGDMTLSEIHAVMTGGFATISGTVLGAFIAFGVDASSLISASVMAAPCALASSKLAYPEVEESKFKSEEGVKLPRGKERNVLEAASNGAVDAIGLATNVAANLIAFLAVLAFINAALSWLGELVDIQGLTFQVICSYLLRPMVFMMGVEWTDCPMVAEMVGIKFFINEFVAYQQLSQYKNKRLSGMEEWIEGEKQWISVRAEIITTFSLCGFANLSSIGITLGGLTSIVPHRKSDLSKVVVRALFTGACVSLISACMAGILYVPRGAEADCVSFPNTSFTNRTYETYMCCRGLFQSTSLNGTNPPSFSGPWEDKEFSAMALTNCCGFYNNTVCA
Assay: Inhibitory activity against uptake of adenosine through human CNT2
Format: cell-based
Details: 14C-labeled adenosine 10 μM, COS-7 cells transiently expressing human CNT2, 30 minutes at 37° C.
Experimental: Expression plasmid of human CNT2 was transfected into COS-7 cells (RIKEN CELL BANK RCB0539) by lipofection method. LIPOFECTAMINE 2000 (Invitrogen) was used as a lipofection reagent. COS-7 cells were diluted in D-MEM (Invitrogen) containing 10% fetal calf serum (Sanko Junyaku) at 5×10^5/1 mL, and seeded into collagen-coated 96-well plates (IWAKI) at 100 μL/well and cultured at 37° C. for 2 hours with 5% CO2 condition. For each well, 0.6 μL of LIPOFECTAMINE 2000 (Invitrogen) was diluted in 25 μL of OPTI-MEM (Invitrogen), and incubated for 7 minutes at room temperature (hereinafter referred to as Lipo 2000-OPTI). […]
An Uptake buffer was prepared by addition of a mixture of non-radioisotope labeled (Sigma) and ^14C-labeled (Amersham Biosciences) adenosine at the final concentration of 10 μM into a buffer, pH 7.4, containing 140 mM sodium chloride, 2 mM potassium chloride, 1 mM calcium chloride, 1 mM magnesium chloride, 10 mM HEPES 2-[4-(2-hydroxyethyl)-1-piperazinyl]ethane sulfonic acid, 5 mM tris(hydroxy-methyl)aminomethane and 5 mM glucose. […] After mixing with 150 μL of MicroScint-40 (Perkin Elmer), radioactivity was measured by means of scintillation counter (Perkin Elmer). One hundred % was set to the difference between the uptake in the control group and the basal uptake, and the uptake of adenosine at each test compound concentration was calculated. […]

IC50 [nM]	Compound
297	Nc1ncnc2c1nc(NCc1ccc(-c3ccccc3)c(OCCCCO)c1)n2[C@@H]1O[C@H](CO)[C@@H](O)[C@H]1O [Example 82]

Target: T2, human CNT2 (Homo sapiens, UniProt O43868, I160M/P22L/S45C)
T2 construct: expressed in transfected cells; host or cells: COS-7 cells (RIKEN CELL BANK RCB0539), transient lipofection of a pCI-neo plasmid
T2 sequence (O43868 1-658 P22L/S45C/I160M): T1 sequence (O43868 1-658 P22L/S45C/I160M)
Assay: Inhibitory activity against uptake of inosine through human CNT2
Format: cell-based
Details: 14C-labeled inosine 10 μM, COS-7 cells transiently expressing human CNT2, 30 minutes at 37° C.
Experimental: Expression plasmid of human CNT2 was transfected into COS-7 cells (RIKEN CELL BANK RCB0539) by lipofection method. LIPOFECTAMINE 2000 (Invitrogen) was used as a lipofection reagent. COS-7 cells were diluted in D-MEM (Invitrogen) containing 10% fetal calf serum (Sanko Junyaku) at 5×10^5/1 mL, and seeded into collagen-coated 96-well plates (IWAKI) at 100 μL/well and cultured at 37° C. for 2 hours with 5% CO2 condition. For each well, 0.6 μL of LIPOFECTAMINE 2000 (Invitrogen) was diluted in 25 μL of OPTI-MEM (Invitrogen), and incubated for 7 minutes at room temperature (hereinafter referred to as Lipo 2000-OPTI). For each well, 0.3 μg of plasmid was diluted in 25 μL of OPTI-MEM (Invitrogen), and the solution was added to the Lipo 2000-OPTI and mixed gently and incubated for 30 minutes at room temperature, and was transferred 50 μL for each well to culture medium. The cells were incubated at 37° C. with 5% CO2 condition for 2 days, and used for the uptake assays.
An Uptake buffer was prepared by addition of a mixture of non-radioisotope labeled (WAKO) and ^14C-labeled (Muromachi Yakuhin) inosine at the final concentration of 10 μM into a buffer, pH7.4, containing 140 mM sodium chloride, 2 mM potassium chloride, 1 mM calcium chloride, 1 mM magnesium chloride, 10 mM HEPES 2-[4-(2-hydroxyethyl)-1-piperazinyl]ethane sulfonic acid, 5 mM tris(hydroxymethyl)aminomethane and 5 mM glucose. For measurement of basal uptake, Basal uptake measurement buffer, which contained 140 mM choline chloride instead of sodium chloride was prepared. In uptake assays, NBMPR was added to Uptake buffer and Basal uptake measurement buffer at the final concentration of […]. In the case of measurement of inhibitory activity of test compounds, test compounds were dissolved in dimethyl sulfoxide, and then appropriately diluted with Uptake buffer as to prepare Measurement buffers. After removing culture medium of human CNT2 transiently expressing cells, Pretreatment buffer (Basal uptake measurement buffer without inosine and glucose) was added to wells at 200 μL/well and incubated at 37° C. for 10 minutes. After repeating the same step again, Pretreatment buffer was removed and Measurement buffers and Basal uptake measurement buffer were added at 75 μL/well and incubated at 37° C. After incubation for 30 minutes, Measurement buffers and Basal uptake measurement buffer were removed, and the cells were washed with Washing buffer (Basal uptake measurement buffer with non-radioisotope labeled inosine at 10 μM) at 200 μL/well twice. The cells were solubilized with 0.2 mol/L sodium hydroxide at 75 μL/well, and the cell lysates were transferred into PicoPlates (Perkin Elmer). After mixing with 150 μL of MicroScint-40 (Perkin Elmer), radioactivity was measured by means of scintillation counter (Perkin Elmer). One hundred % was set to the difference between the uptake in the control group and the basal uptake, and the uptake of inosine at each test compound concentration was calculated. The test compound concentration inhibiting 50% uptake of inosine (IC50 value) was calculated using logit plot.

Compound	IC50 [nM]
NCCCOc1cc(CNc2nc3c(N)ncnc3n2[C@@H]2O[C@H](CO)[C@@H](O)[C@@H]2O)ccc1-c1ccccc1 [Example 153]	1610
NCCCOc1cc(CNc2nc3c(N)ncnc3n2[C@H]2C[C@H](O)[C@@H](CO)O2)ccc1-c1ccccc1 [Example 155]	266
CCN(CCO)CCCOc1cc(CNc2nc3c(N)ncnc3n2[C@@H]2O[C@H](CO)[C@@H](O)[C@H]2O)ccc1-c1ccccc1 [Example 130]	223
CCCNCCCOc1cc(CNc2nc3c(N)ncnc3n2[C@@H]2O[C@H](CO)[C@@H](O)[C@H]2O)ccc1-c1ccccc1 [Example 147]	321
Nc1ncnc2c1nc(NCc1ccc(-c3ccsc3)cc1)n2[C@@H]1O[C@H](CO)[C@@H](O)[C@H]1O [Example 132]	649
Nc1ncnc2c1nc(NCc1ccc(-c3ccccc3)c(OCCCN3CCCC3)c1)n2[C@@H]1O[C@H](CO)[C@@H](O)[C@H]1O [Example 120]	444
NC(=O)[C@H](Cc1ccc(O)cc1)NCCCOc1cccc(-c2ccc(CNc3nc4c(N)ncnc4n3[C@@H]3O[C@H](CO)[C@@H](O)[C@H]3O)cc2)c1 [Example 164]	85

More lines, now with the values ahead:

IC50 [nM]	Compound
378	CN(C)CCCOc1cccc(-c2ccc(CNc3nc4c(N)ncnc4n3[C@@H]3O[C@H](CO)[C@@H](O)[C@H]3O)cc2)c1 [Example 117]
176	NCCCOc1ccc(-c2cccc(CNc3nc4c(N)ncnc4n3[C@@H]3O[C@H](CO)[C@@H](O)[C@H]3O)c2)cc1 [Example 149]
412	C[N+](C)(C)CCCOc1cccc(-c2ccc(CNc3nc4c(N)ncnc4n3[C@@H]3O[C@H](CO)[C@@H](O)[C@H]3O)cc2)c1 [Example 167]
7150	NCCCOc1cccc(-c2ccc(CNc3nc4c(N)ncnc4n3[C@@H]3O[C@H](CO)[C@@H](O)[C@@H]3O)cc2)c1 [Example 154]
2430	CN(C)CCCOc1cccc(-c2ccc(CCNc3nc4c(N)ncnc4n3[C@@H]3O[C@H](CO)[C@@H](O)[C@H]3O)cc2)c1 [Example 171]
528	Nc1ncnc2c1nc(NCc1ccc(-c3cccc(OCCCN4CCCCC4)c3)cc1)n2[C@@H]1O[C@H](CO)[C@@H](O)[C@H]1O [Example 125]
234	N=C(N)NCCCOc1cccc(-c2ccc(CNc3nc4c(N)ncnc4n3[C@@H]3O[C@H](CO)[C@@H](O)[C@H]3O)cc2)c1 [Example 157, 8-[3′-(3-Guanidinopropoxy)biphenyl-4-ylmethylamino]-adenosine]
378	CCN(CC)CCCOc1cc(CNc2nc3c(N)ncnc3n2[C@@H]2O[C@H](CO)[C@@H](O)[C@H]2O)ccc1-c1ccccc1 [Example 115, 8-[2-(3-Diethylaminopropoxy)biphenyl-4-ylmethylamino]-adenosine]

Test system: not listed separately
Assay: Effects of CNT inhibitor on plasma uric acid level (purine load test in rats)
Format: in vivo
Details: Male SD-IGS rats, oxonic acid 100 mg/kg s.c., purine mix 50 mg/kg and test compound 50 mg/kg orally, blood after 1 hour; control group = 100%
Experimental: Male SD-IGS rats (5 weeks old) which were fasted overnight, were subcutaneously treated with oxonic acid (Aldrich; 100 mg/kg), and after 1 hour, purine mix (Adenosine: Inosine: Guanosine=1:1:1 (Adenosine (Sigma), Inosine (WAKO), Guanosine (ICN); 50 mg/kg) and test compounds (50 mg/kg) were orally administrated simultaneously. A control group was treated with oxonic acid and the purine mix, and a group administrated only oxonic acid represented endogenous plasma uric acid value. After 1 hour, blood was collected from the abdominal aorta under ether anesthesia, and the plasma was collected with Venoject II vacuum blood collecting tube (Terumo, VP-FH052). According to the method described in Journal of Chromatography B, Vol. 744 (2000), pp. 129-138, plasma uric acid level was measured by using HPLC method mentioned below. The difference between plasmauric acid value in each study group and endogenous plasma uric acid value was calculated on the basis of 100% in the control group.
Theophylline (10 μg) as an internal standard substance was added to 0.1 mL of plasma collected with the above method, and then the samples were deproteinized with 1 mL of methanol. After the samples were centrifuged, the methanol layers were evaporated to dryness under a stream of nitrogen. […] Plasma uric acid concentration was determined by HPLC method according to the condition described below. […]

Compound	Percentage of increment of plasma uric acid level (%)
Nc1ncnc2c1nc(NCc1ccc(-c3ccccc3)c(OCCCCO)c1)n2[C@@H]1O[C@H](CO)[C@@H](O)[C@H]1O [Example 82]	44.1 (p < 0.05) %

Test system: CNT
Assay: not given
Details: Non-patent Reference 14; cited from earlier work

Compound	inhibitory activity against CNT
Nc1ncnc2c1nc(Br)n2[C@@H]1O[C@H](CO)[C@@H](O)[C@H]1O [8-bromoadenosine]	weak inhibitory activity

Target: T3, ENT2 (Homo sapiens, UniProt Q14542)
T3 sequence (Q14542 1-456): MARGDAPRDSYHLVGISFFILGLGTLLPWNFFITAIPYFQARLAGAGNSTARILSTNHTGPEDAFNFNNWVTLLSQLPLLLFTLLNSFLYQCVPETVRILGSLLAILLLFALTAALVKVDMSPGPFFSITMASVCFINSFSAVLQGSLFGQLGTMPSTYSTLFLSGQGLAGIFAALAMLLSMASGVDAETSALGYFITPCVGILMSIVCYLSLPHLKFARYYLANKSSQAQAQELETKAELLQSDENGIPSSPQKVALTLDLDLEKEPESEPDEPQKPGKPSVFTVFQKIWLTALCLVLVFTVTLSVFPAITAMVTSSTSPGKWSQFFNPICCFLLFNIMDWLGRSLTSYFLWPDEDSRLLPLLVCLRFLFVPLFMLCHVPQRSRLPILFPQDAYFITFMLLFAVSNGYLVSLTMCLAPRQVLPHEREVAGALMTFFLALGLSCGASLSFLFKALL
Assay: not given
Details: ENT2 inhibited only by high concentration of NBMPR; cited from earlier work

Compound	IC50 [nM]
O=[N+]([O-])c1ccc(CSc2ncnc3c2ncn3C2OC(CO)C(O)C2O)cc1 (stereo not shown) [NBMPR, nitrobenzylthioinosine]	> 1000
